Results on 3 compounds are retold here after PMC12247020, “A Cyclized Helix‐Loop‐Helix Peptide as a Molecular Scaffold for Cell‐Membrane Permeable Inhibitors for the Interaction Between Estrogen Receptor α and Coactivator SRC1” (Chembiochem, 2025).

Where two headings read alike, the source gives them in different places. Bridge positions count the residues as written; N and C are the ends. Peptide text beside a SMILES is read from it. * marks the point of attachment. X1 = CN(C)c1ccc2c(c1)Oc1cc(N(C)C)ccc1C21OC(=O)c2cc(NC(=O)C*)ccc21

Series [1] relates to MCF‐7 breast cancer cells. Nature of the series: Live cell confocal laser microscopy of TMR‐labeled peptides (cell membrane permeability). Particulars: MCF‐7 cells, 3 μM TMR‐labeled peptide.
Series [2] concerns the target T1, ERα/LBD (ERα302–552) (Homo sapiens, UniProt P03372).
T1 construct: Recombinant ERα/LBD (ERα^302–552) was prepared as previously reported; made in house; host or cells: Escherichia coli BL21-CodonPlus-RP
T1 sequence (P03372 302-552): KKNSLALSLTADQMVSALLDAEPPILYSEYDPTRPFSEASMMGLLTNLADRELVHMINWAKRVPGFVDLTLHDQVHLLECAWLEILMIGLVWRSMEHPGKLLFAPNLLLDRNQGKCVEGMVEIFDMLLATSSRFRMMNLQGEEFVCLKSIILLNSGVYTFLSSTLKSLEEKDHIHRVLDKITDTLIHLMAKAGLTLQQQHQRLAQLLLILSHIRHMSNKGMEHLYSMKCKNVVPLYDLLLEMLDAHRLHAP
Put plainly: Fluorescence polarization (FP) direct binding of fluorescently labeled peptides to ERα/LBD. The procedure: The binding activity of cHLH‐ERα was examined by fluorescence polarization (FP) analysis.^[ [26], [29] ^] The cHLH peptides were labeled with tetramethylrhodamine (TMR) to provide the fluorescent cHLH peptide TMR‐cHLH‐ERα, and fluorescent TMR‐YT1‐RS as a negative control (Figure 1, Figure S2, Supporting Information).
1. Protein Expression and Purification
The plasmid encoding the LBD domain of ERα (ERα302-552), was prepared from the plasmid pF1KB7810 (Kazusa DNA Res. Inst. ) encoding the full length of Estrogen Receptor α as described by using pET -28a(+)vector [1]. […]
4. Fluorescence Polarization […]
Tris-HCl (pH 8.0), 25 mM NaCl, 10%(v/v) Glycerol, 1 mM TCEP as described. The concentration of FL-SRC1Box2 labeled with Fluorescein and TMR-cHLH-ERα and YT1-RS were determined from the absorption of Fluorescein or Tetramethylrhodamine. The respective peptide was incubated with ERα-LBD for 30 min in 20 mM Tris-HCl (pH 8.0), 25 mM NaCl with 1 mM 17β-estradiol, and the mixture was transferred into a 384-well microtiter well (Non-binding, Black, greiner bio -one) and the fluorescence polarization was measured on a spectrofluorometer (SpectraMax iD5, Molecular Devices) at 20 °C. The KD values were analyzed via a quadratic binding equation (Fig S5A, S5B) with the data fit to calculate by using KaleidaGraph 4.0 as described elsewhere. […]
(In general: Polarisation of emitted light reports the rotation of a fluorescent probe.)

As for `CC(C)C[C@@H]1NC(=O)[C@H](C)NC(=O)[C@H](C)NC(=O)[C@H](CC(C)C)NC(=O)[C@H](CCCCN)NC(=O)[C@H](C)NC(=O)[C@H](CCCCN)NC(=O)[C@H](CC(C)C)NC(=O)[C@H](C)NC(=O)[C@H](C)NC(=O)[C@H](CC(C)C)NC(=O)[C@H](CCCCN)NC(=O)CNC(=O)CNC(=O)CNC(=O)CNC(=O)CNC(=O)CNC(=O)CNC(=O)[C@H](CCC(=O)O)NC(=O)[C@H](CC(C)C)NC(=O)[C@H](CCCNC(=N)N)NC(=O)[C@H](CCCNC(=N)N)NC(=O)[C@H](CC(C)C)NC(=O)[C@H](CCC(=O)O)NC(=O)[C@H](CCCNC(=N)N)NC(=O)[C@H](CCC(=O)O)NC(=O)[C@H](CC(C)C)NC(=O)[C@H](CCCNC(=N)N)NC(=O)[C@H](CCCNC(=N)N)NC(=O)[C@H](CC(C)C)NC(=O)[C@H](CCC(=O)O)NC(=O)[C@H](CCCNC(=N)N)NC(=O)[C@H](CSCC(=O)Nc2ccc3c(c2)C(=O)OC32c3ccc(N(C)C)cc3Oc3cc(N(C)C)ccc32)NC(=O)CNC(=O)CSC[C@@H](C(N)=O)NC(=O)[C@H](Cc2ccc(O)cc2)NC(=O)[C@H](C)NC(=O)[C@H](CCCCN)NC1=O` [TMR‐YT1‐RS] ({CH2CO}-GC(X1)RELRRLERELRRLEGGGGGGGKLAALKAKLAALKAYC-NH2; thioether N-39), the “cell membrane permeability, confocal laser microscopy, 4 °C” value in series [1] (4 °C (pre‐chilled medium), fluorescence imaging) is reported as “showed cell membrane permeability”. In addition, the “cell membrane permeability, confocal laser microscopy, 37 °C” value in series [1] (5‐min incubation, 37 °C, 5% CO2, nuclei stained with Hoechst 33 342, fluorescence imaging) is listed as “showed cell membrane permeability”. Regarding `CC(C)C[C@@H]1NC(=O)[C@H](C)NC(=O)[C@H](C)NC(=O)[C@H](CC(C)C)NC(=O)[C@H](CCCCN)NC(=O)CNC(=O)CNC(=O)CNC(=O)CNC(=O)CNC(=O)CNC(=O)CNC(=O)[C@H](CCC(=O)O)NC(=O)[C@H](CC(C)C)NC(=O)[C@H](CCCNC(=N)N)NC(=O)[C@H](CCCNC(=N)N)NC(=O)[C@H](CC(C)C)NC(=O)[C@H](CCC(=O)O)NC(=O)[C@H](CCCNC(=N)N)NC(=O)[C@H](CCC(=O)O)NC(=O)[C@H](CC(C)C)NC(=O)[C@H](CCCNC(=N)N)NC(=O)[C@H](CCCNC(=N)N)NC(=O)[C@H](CC(C)C)NC(=O)[C@H](CCC(=O)O)NC(=O)[C@H](CCCNC(=N)N)NC(=O)[C@H](CSCC(=O)Nc2ccc3c(c2)C(=O)OC32c3ccc(N(C)C)cc3Oc3cc(N(C)C)ccc32)NC(=O)CNC(=O)CSC[C@@H](C(N)=O)NC(=O)[C@H](Cc2ccc(O)cc2)NC(=O)[C@H](C)NC(=O)[C@H](CCCCN)NC(=O)[C@H](CC(C)C)NC(=O)[C@H](CC(C)C)NC(=O)[C@H](CC(C)C)NC(=O)[C@H](CC(C)C)NC(=O)[C@H](CCCCN)NC(=O)[C@H](CC(C)C)NC(=O)[C@H](CCCCN)NC1=O` [TMR‐cHLH‐ERα] ({CH2CO}-GC(X1)RELRRLERELRRLEGGGGGGGKLAALKLKLLLLKAYC-NH2; thioether N-39), the Kd in series [2] is 0.285 µM. For the compound “CH3CO-C(FL)QLLTERHKILHRLLQEGSPSD-NH2 (Ac-C(fluorescein)QLLTERHKILHRLLQEGSPSD-NH2; not fully specified; printed as CH3CO-C(FL)QLLTERHKILHRLLQEGSPSD-NH2) [FL‐SRC1Box2, fluorescently labeled SRC1 box 2 peptide with the LXXLL motif, FP tracer, reference compound]”, in series [2] (FP, 20 nM labeled peptide, in the presence of 17β‐estradiol, 20 mM Tris-HCl pH 8.0, 25 mM NaCl, 30 min, 20 °C, quadratic binding equation (Fig S5A), read-out: K D value, binding to ERα/LBD), the Kd worked out at 7.8 µM.
